{"source": "patent US7951921B2", "about": "“Multivalent carriers of bi-specific antibodies” (Immunomedics, Inc., priority 2003, dated 2011)", "key": {"[1]": {"details": "not told; cited from earlier work"}, "[2]": {"details": "cited from earlier work"}, "[3]": {"system": "hMN-14IgG^(I253A)-(734scFv)2", "experiment": "Complex formation of radiolabeled DTPA peptides with bsMAb, size exclusion HPLC", "format": "binding", "details": "for complexing of bsMAb with radiolabeled indium-DTPA chelates: radioiodinated bsMAb, size exclusion HPLC", "excerpt": "The binding of In-DTPA peptides to the anti-In-DTPA antibody hMN-14IgG^(I253A)-(734scFv)2 was examined by size exclusion HPLC. The bsMAb was radioiodinated using chloramines-T (Greenwood and Hunter). Binding of the radioiodinated bsMAbs to CEA, WI2 (rat anti-MN-14 idiotypic antibody) and radiolabeled peptidyl DTPA chelate was examined on analytical size exclusion HPLC. Approximately 90% of the radioiodinated bsMAb bound to CEA upon treatment with 10-20× molar excess of CEA. The bsMAb complexed with radiolabeled indium-DTPA chelates (IMP-156 or IMP-192).\nAn IMP 192 kit was labeled with Tc-99m 20.9 mCi. Aliquots from the kit were diluted and mixed with hMN-14IgG^(I253A)-(734scFv)2 in the following molar ratios (peptide/Ab) 1:5, 1:1, and 20:1. The peptide/antibody mixtures, the peptide alone and the antibody alone were examined on a Bio-Sil SEC 250 300 mm×7.8 mm HPC column eluted at 1 mL/min with 0.2 M phosphate buffer pH 6.8.\nA known standard of hMN-14IgG^(I253A)-(734scFv)2 eluted from the column at about 9.41 minutes (FIG. 3). A known standard of Tc-99m IMP 192 eluted from the column at about 14.85 minutes (FIG. 4)."}, "c734 IgG [4]": {"system": "c734 IgG", "experiment": "Affinity blocking studies on IMP 240-coated BIAcore chip (surface plasmon resonance)", "format": "binding", "protocol": "(§1) The binding of In-DTPA peptides to the anti-In-DTPA antibody hMN-14IgG^(I253A)-(734scFv)2 was examined by affinity blocking studies using the IMP 240 peptide, Ac-Lys(DPTA)-Cys-NH2, which comprises a single DPTA group and a single Cys residue that can be used to form disulfide bridges with a second molecule having a free sulfhydryl group.\n(§2) The binding studies were performed on a chip coated with IMP 240 using the disulfide connection as recommended by BIAcore. The chip surface was regenerated after each assay with 100 μL 0.025 M In-DTPA in HBS-In-citrate buffer as described. The binding studies were done with picomoles of antibody therefore binding was very sensitive to the slightest trace of In-DTPA left after the displacement wash.\nStudies were performed with c734-IgG to compare the In-DTPA peptide binding behavior of this IgG to the hMN-14IgG^(I253A)-(734scFv)2."}, "[5]": {"system": "hMN-14IgG^(I253A)-(734scFv)2", "experiment": "Affinity blocking studies on IMP 240-coated BIAcore chip (surface plasmon resonance)", "format": "binding", "protocol": "as §1, §2"}, "[6]": {"molecular_target": "IMP 246 [Ac-Cys-Lys(DTPA)-Tyr-Lys(DTPA)-NH2]2", "experiment": "size exclusion HPLC; In-111 IMP 246 mixed with bsAb at 1:10 (IMP 246:bsAb) mole ratio"}, "[7]": {"molecular_target": "IMP 246 [Ac-Cys-Lys(DTPA)-Tyr-Lys(DTPA)-NH2]2", "experiment": "size exclusion HPLC; labeled IMP 246 mixed with hMN-14 IgG^(I253A)-(734scFv)2, 16 hr at 37° C. in mouse serum"}, "[8]": {"molecular_target": "CEA (carcinoembryonic antigen) (UniProt P06731)", "sequence (P06731 35-685 limits assumed)": "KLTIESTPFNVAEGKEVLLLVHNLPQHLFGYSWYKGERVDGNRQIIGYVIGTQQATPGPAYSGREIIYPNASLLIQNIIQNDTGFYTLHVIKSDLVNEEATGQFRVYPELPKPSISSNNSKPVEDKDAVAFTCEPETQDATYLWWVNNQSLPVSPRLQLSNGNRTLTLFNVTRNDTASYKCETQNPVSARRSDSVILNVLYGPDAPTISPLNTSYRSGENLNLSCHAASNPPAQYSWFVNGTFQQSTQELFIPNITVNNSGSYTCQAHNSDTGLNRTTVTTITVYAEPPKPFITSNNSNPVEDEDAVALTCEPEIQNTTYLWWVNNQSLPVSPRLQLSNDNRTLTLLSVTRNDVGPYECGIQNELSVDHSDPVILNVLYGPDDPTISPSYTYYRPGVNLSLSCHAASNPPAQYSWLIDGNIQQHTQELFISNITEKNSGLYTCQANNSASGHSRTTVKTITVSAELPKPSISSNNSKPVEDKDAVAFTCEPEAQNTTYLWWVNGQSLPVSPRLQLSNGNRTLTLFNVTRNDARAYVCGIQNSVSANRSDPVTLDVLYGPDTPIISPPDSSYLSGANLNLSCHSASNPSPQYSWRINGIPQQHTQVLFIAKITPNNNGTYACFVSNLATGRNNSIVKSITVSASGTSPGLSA", "experiment": "analytical size exclusion HPLC of radioiodinated bsMAb mixed with 10-20x molar excess of CEA"}, "[9]": {"molecular_target": "hMN-14IgG^(I253A)-(734scFv)2", "experiment": "SPR blocking assay; peptide premixed with antibody, IMP 240 chip"}, "c734 IgG [10]": {"molecular_target": "c734 IgG", "experiment": "SPR blocking assay; peptide premixed with antibody, IMP 240 chip"}}, "note": "Primed or numbered codes have the meaning given here. DTPA′ = diethylenetriaminepentaacetic acid", "data": [{"molecule": "Cl.NCCSSCCC(=O)O", "note": "[AEDP]", "values": [{"measurement": "Membrane Permeable", "setting": "[1]", "result": "No"}]}, {"molecule": "O=C(O)CCN1C(=O)C=CC1=O", "note": "[BMPA]", "values": [{"measurement": "Membrane Permeable", "setting": "[1]", "result": "No"}]}, {"molecule": "CCN=C=NCCCN(C)C", "note": "[EDC, 1-ethyl-3-(3-dimethylaminopropyl)-carbodiimide]", "values": [{"measurement": "Water Soluble", "setting": "[2]", "result": "Yes"}]}, {"molecule": "O=C(O)CCCCCN1C(=O)C=CC1=O", "note": "[EMCA]", "values": [{"measurement": "Membrane Permeable", "setting": "[1]", "result": "No"}]}, {"molecule": "O=C(CCCCCN1C(=O)C=CC1=O)ON1C(=O)CCC1=O", "note": "[EMCS, N-[ε-maleimidocaproyloxy]succinimide ester]", "values": [{"measurement": "Membrane Permeable", "setting": "[1]", "result": "Yes"}]}, {"molecule": "O=C(CCCN1C(=O)C=CC1=O)ON1C(=O)CCC1=O", "note": "[GMBS, N-[γ-Maleimidobutyryloxy] succinimide ester]", "values": [{"measurement": "Membrane Permeable", "setting": "[1]", "result": "Yes"}]}, {"molecule": "O=C(O)CCCCCCCCCCN1C(=O)C=CC1=O", "note": "[KMUA]", "values": [{"measurement": "Membrane Permeable", "setting": "[1]", "result": "No"}]}, {"molecule": "O=C(CCCCCNC(=O)C1CCC(CN2C(=O)C=CC2=O)CC1)ON1C(=O)CCC1=O", "note": "(centres unmarked) [LC-SMCC, succiminidyl-4-(N-maleimidomethyl)cyclohexane-1-carboxy-(6-amido-caproate)]", "values": [{"measurement": "Membrane Permeable", "setting": "[1]", "result": "No"}]}, {"molecule": "O=C(CCSSc1ccccn1)NCCCCCC(=O)ON1C(=O)CCC1=O", "note": "[LC-SPDP, N-succinimidyl 6-[3′-(2-pyridyldithio)propionamido]hexanoate]", "values": [{"measurement": "Water Soluble", "setting": "[2]", "result": "No"}]}, {"molecule": "O=C(ON1C(=O)CCC1=O)c1cccc(N2C(=O)C=CC2=O)c1", "note": "[MBS, m-maleimidobenzoyl-N-hydoxysuccinimide ester]", "values": [{"measurement": "Membrane Permeable", "setting": "[1]", "result": "Yes"}]}, {"molecule": "CC(=O)SCCC(=O)ON1C(=O)CCC1=O", "note": "[SATP]", "values": [{"measurement": "Membrane Permeable", "setting": "[1]", "result": "Yes"}]}, {"molecule": "O=C(CBr)NCCC(=O)ON1C(=O)CCC1=O", "note": "[SBAP]", "values": [{"measurement": "Membrane Permeable", "setting": "[1]", "result": "Yes"}]}, {"molecule": "O=C(CI)Nc1ccc(C(=O)ON2C(=O)CCC2=O)cc1", "note": "[SIAB, N-succinimidyl(4-iodoacetyl)aminobenzoate]", "values": [{"measurement": "Membrane Permeable", "setting": "[1]", "result": "Yes"}]}, {"molecule": "O=C(ON1C(=O)CCC1=O)C1CCC(CN2C(=O)C=CC2=O)CC1", "note": "(centres unmarked) [SMCC, succinimidyl 4-(N-maleimidomethyl)cyclohexane-1-carboxylate]", "values": [{"measurement": "Membrane Permeable", "setting": "[1]", "result": "Yes"}]}, {"molecule": "CC(SSc1ccccn1)c1ccc(C(=O)ON2C(=O)CCC2=O)cc1", "note": "(centres unmarked) [SMPT, 4-succinimidyloxycarbonyl-methyl-(2-pyridyldithio)-toluene]", "values": [{"measurement": "Water Soluble", "setting": "[2]", "result": "No"}]}, {"molecule": "O=C(CCSSc1ccccn1)ON1C(=O)CCC1=O", "note": "[SPDP, N-succinimidyl 3-(2-pyridyldithio)propionate]", "values": [{"measurement": "Membrane Permeable", "setting": "[1]", "result": "Yes"}]}, {"molecule": "C=CS(=O)(=O)c1ccc(C(=O)ON2C(=O)CCC2=O)cc1", "note": "[SVSB]", "values": [{"measurement": "Membrane Permeable", "setting": "[1]", "result": "Yes"}]}, {"molecule": "O=C(CCCCCN1C(=O)C=CC1=O)ON1C(=O)CC(S(=O)(=O)O)C1=O", "note": "(centres unmarked) [Sulfo-EMCS, N-[ε-maleimidocaproyloxy]sulfosuccinimide ester]", "values": [{"measurement": "Membrane Permeable", "setting": "[1]", "result": "No"}]}, {"molecule": "O=C(CCCN1C(=O)C=CC1=O)ON1C(=O)CC(S(=O)(=O)O)C1=O", "note": "(centres unmarked) [Sulfo-GMBS, N-[γ-Maleimidobutyryloxy] sulfosuccinimide ester]", "values": [{"measurement": "Membrane Permeable", "setting": "[1]", "result": "No"}]}, {"molecule": "O=C(CCCCCCCCCCN1C(=O)C=CC1=O)ON1C(=O)CC(S(=O)(=O)O)C1=O.[Na]", "note": "(centres unmarked) [Sulfo-KMUS]", "values": [{"measurement": "Membrane Permeable", "setting": "[1]", "result": "No"}]}, {"molecule": "CC(SSc1ccccn1)c1ccc(C(=O)NCCCCCC(=O)ON2C(=O)CC(S(=O)(=O)O)C2=O)cc1", "note": "(centres unmarked) [Sulfo-LC-SMPT, sulfosuccinimidyl 6-[a-methyl-a-(2-pyridyl-dithio)toluamido]hexanoate]", "values": [{"measurement": "Water Soluble", "setting": "[2]", "result": "Yes"}]}, {"molecule": "O=C(CCSSc1ccccn1)NCCCCCC(=O)ON1C(=O)CC(S(=O)(=O)O)C1=O", "note": "(centres unmarked) [Sulfo-LC-SPDP, sulfosuccinimidyl 6-[3′-(2-pyridyldithio)-propionamido] hexanoate]", "values": [{"measurement": "Water Soluble", "setting": "[2]", "result": "Yes"}]}, {"molecule": "O=C(ON1C(=O)CC(S(=O)(=O)O)C1=O)c1cccc(N2C(=O)C=CC2=O)c1", "note": "(centres unmarked) [Sulfo-MBS, m-maleimidobenzoyl-N-hydoxysulfosuccinimide ester]", "values": [{"measurement": "Membrane Permeable", "setting": "[1]", "result": "No"}]}, {"molecule": "O=C(CI)Nc1ccc(C(=O)ON2C(=O)CC(S(=O)(=O)O)C2=O)cc1", "note": "(centres unmarked) [Sulfo-SIAB, sulfosuccinimidyl(4-iodoacetyl)aminobenzoate]", "values": [{"measurement": "Membrane Permeable", "setting": "[1]", "result": "No"}]}, {"molecule": "O=C(ON1C(=O)CC(S(=O)(=O)O)C1=O)C1CCC(CN2C(=O)C=CC2=O)CC1", "note": "(centres unmarked) [Sulfo-SMCC, sulfosuccinimidyl 4-(N-maleimidomethyl)cyclohexane-1-carboxylate]", "values": [{"measurement": "Membrane Permeable", "setting": "[1]", "result": "No"}]}, {"molecule": "O=C(CCCc1ccc(N2C(=O)C=CC2=O)cc1)ON1C(=O)CC(S(=O)(=O)O)C1=O", "note": "(centres unmarked) [Sulfo-SMPB, sulfosuccinimidyl 4-[p-maleimidophenyl]butyrate]", "values": [{"measurement": "Water Soluble", "setting": "[2]", "result": "Yes"}]}, {"molecule": "Ac-Lys(DTPA)-Tyr-Lys(DTPA)-Lys(TSCG-Cys)-NH2 [IMP 192]", "values": [{"measurement": "peptide/antibody complexes formed (HPLC traces)", "setting": "[3]; Tc-99m IMP 192 mixed with antibody, molar ratios 1:5, 1:1, 20:1", "result": "essentially only one peptide/antibody complex is formed"}, {"measurement": "complexing of bsMAb with radiolabeled indium-DTPA chelates", "setting": "[3]", "result": "complexed"}]}, {"molecule": "Ac-Phe-Gln-Tyr-Lys(DTPA)-NH2 (Ac-FQYK(DTPA′)-NH2) [IMP 233]", "values": [{"measurement": "blocking of antibody binding to the IMP 240 chip", "setting": "c734 IgG [4]; 4:1 peptide/c734 IgG", "result": "did not completely block"}, {"measurement": "blocking of antibody binding to the IMP 240 chip", "setting": "[5]; four equivalents of peptide premixed with the antibody", "result": "not completely blocked"}]}, {"molecule": "Ac-Phe-Lys(DTPA)-Tyr-Lys(DTPA)-NH2 (Ac-FK(DTPA′)YK(DTPA′)-NH2) [IMP 156]", "values": [{"measurement": "complexing of bsMAb with radiolabeled indium-DTPA chelates", "setting": "[3]", "result": "complexed"}, {"measurement": "equivalents of peptide needed to block binding to the chip", "setting": "c734 IgG [4]", "result": "two or more equivalents"}, {"measurement": "affinity of antibody for In-IMP 156 relative to a single In-DTPA for a c734 IgG binding arm", "setting": "[5]", "result": "far higher"}, {"measurement": "equivalents of peptide that block binding to the chip", "setting": "[5]", "result": "one equivalent"}, {"measurement": "blocking of antibody binding to the IMP 240 chip", "setting": "[5]; peptide mixed with antibody in a 1:1 ratio", "result": "completely blocked"}]}, {"molecule": "hMN-14IgG-(734scFv)2 (bispecific antibody)", "values": [{"measurement": "percent of In-111 label in the complex peak", "setting": "[6]", "result": 83, "unit": "%"}]}, {"molecule": "hMN-14IgG^(I253A)-(734scFv)2 (bispecific antibody)", "values": [{"measurement": "percent of HPLC area in the complex peak after 16 hr in mouse serum", "setting": "[7]", "result": "> 90", "unit": "%"}, {"measurement": "percent of In-111 label in the complex peak", "setting": "[6]", "result": 90, "unit": "%"}, {"measurement": "percent of bsMAb bound", "setting": "[8]", "result": 90, "unit": "%"}]}, {"molecule": "Ac-FK(DTPA′)YK(DTPA′)-NH2 (also: DTPA loaded with indium)", "note": "[IMP 156 Ac-Phe-Lys(DTPA)-Tyr-Lys(DTPA)-NH2]", "values": [{"measurement": "equivalents of peptide needed to block binding to the IMP 240 chip", "setting": "[9]", "result": 1, "unit": "equivalents"}, {"measurement": "equivalents of peptide needed to block binding to the IMP 240 chip", "setting": "c734 IgG [10]", "result": 2, "unit": "equivalents"}]}]}
